Assay results as given in patent US20170253601A1, “Substituted Pyrrolidine Compounds” (EPIZYME, INC., priority 2014, published 2017).

Each molecule was assayed against T1, SMYD2 (Homo sapiens, UniProt Q9NRG4) (assay: SMYD2 Biochemical Assay (3H-SAM, biotinylated peptide substrate, Flashplate)). Conditions: IC50 values are an average of n = 1 to n = 50; read-out: SMYD2 Biochem IC50 (μM)*.
T1 construct: Full length SMYD2 (NP 064582.2) was cloned; His6 (N, cleaved yes); FLAG (N); made in house; host or cells: Sf9 insect cells
From the text: S-adenosylmethionine (SAM), S-adenosylhomocysteine (SAH), bicine, Tween20, dimethylsulfoxide (DMSO), bovine skin gelatin (BSG), and Tris(2-carboxyethyl)phosphine hydrochloride (TCEP) were purchased from Sigma-Aldrich at the highest level of purity possible. ^3H-SAM was purchase from American Radiolabeled Chemicals with a specific activity of 80 Ci/mmol. 384-well streptavidin Flashplates were purchased from PerkinElmer.
Peptide was synthesized with a N-terminal linker-affinity tag motif and a C-terminal amide cap by 21st Century Biochemicals. The peptide was high-performance liquid chromatography (HPLC) purified to greater than 95% purity and confirmed by liquid chromatography mass spectrometry (LC-MS). The sequence was […](K-Biot)-amide. (SEQ ID No: 3)
Full length SMYD2 (NP 064582.2) was cloned into a pFastbac-Htb-lic vector with an N-terminal His6 tag and FLAG tag, preceded by a TEV protease cleavage site. The protein was expressed in Sf9 insect cells. Cells were resuspended in lysis buffer (25 mM HEPES-NaOH, pH 7.5, 200 mM NaCl, 5% glycerol, and 5 mM β-ME) and lysed by sonication. The protein was purified by Ni-NTA (Qiagen), followed by TEV cleavage to remove the His6 tag, subtractive Ni-NTA (Qiagen), and gel filtration chromatography using an […] (GE Healthcare). Purified protein was stored in 20 mM Tris-HCl, pH 8.0, 100 mM NaCl, and 1 mM TCEP.
The assays were all performed in a buffer consisting of 20 mM Bicine (pH=7.6), 1 mM TCEP, 0.005% Bovine Skin Gelatin, and 0.002% Tween20, prepared on the day of use. Compounds in 100% DMSO (1 ul) were spotted into a polypropylene 384-well V-bottom plates (Greiner) using a Platemate Plus outfitted with a 384-channel head (Thermo Scientific). DMSO (1 ul) was added to Columns 11, 12, 23, 24, rows A-H for the maximum signal control and 1 ul of SAH, a known product and inhibitor of SMYD2, was added to columns 11, 12, 23, 24, rows I-P for the minimum signal control. A cocktail (40 ul) containing the SMYD2 enzyme was added by Multidrop Combi (Thermo-Fisher). The compounds were allowed to incubate with SMYD2 for 30 min at room temperature, then a cocktail (10 ul) containing ^3H-SAM and peptide was added to initiate the reaction (final volume=51 ul). The final concentrations of the components were as follows: SMYD2 was 1.5 nM, ^3H-SAM was 10 nM, and peptide was 60 nM, SAH in the minimum signal control wells was 1000 uM, and the DMSO concentration was 2%. The assays were stopped by the addition of non-radioactive SAM (10 ul) to a final concentration of 600 uM, which dilutes the ^3H-SAM to a level where its incorporation into the peptide substrate is no longer detectable. 50 ul of the reaction in the 384-well polypropylene plate was then transferred to a 384-well Flashplate and the biotinylated peptides were allowed to bind to the streptavidin surface for at least 1 hour before being washed three times with 0.1% Tween20 in a Biotek ELx405 plate washer. The plates were then read in a PerkinElmer TopCount plate reader to measure the quantity of ^3H-labeled peptide bound to the Flashplate surface, measured as disintegrations per minute (dpm) or alternatively, referred to as counts per minute (cpm).
Where dpm=disintegrations per minute, cmpd=signal in assay well, and min and max are the respective minimum and maximum signal controls.
Where top and bottom are the normally allowed to float, but may be fixed at 100 or 0 respectively in a 3-parameter fit. The Hill Coefficient normally allowed to float but may also be fixed at 1 in a 3-parameter fit. I is the compound concentration.
SMYD2 biochemical assay data for representative Compounds of the Disclosure are presented in Tables 1-3 in the column titled “SMYD2 Biochem IC50 (μM).”

T1 sequence (Q9NRG4 whole entry): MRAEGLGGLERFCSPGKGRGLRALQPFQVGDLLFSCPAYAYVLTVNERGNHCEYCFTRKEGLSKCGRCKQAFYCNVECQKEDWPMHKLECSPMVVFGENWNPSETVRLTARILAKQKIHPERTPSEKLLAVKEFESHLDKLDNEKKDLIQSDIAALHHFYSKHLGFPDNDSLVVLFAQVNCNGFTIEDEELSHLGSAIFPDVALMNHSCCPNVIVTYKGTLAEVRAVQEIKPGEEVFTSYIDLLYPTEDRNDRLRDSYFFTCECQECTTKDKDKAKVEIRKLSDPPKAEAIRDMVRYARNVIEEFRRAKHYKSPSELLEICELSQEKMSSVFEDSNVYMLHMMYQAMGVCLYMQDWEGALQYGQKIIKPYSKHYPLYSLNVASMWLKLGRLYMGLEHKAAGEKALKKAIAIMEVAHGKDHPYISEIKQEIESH

SMILES	IC50
C[C@H]1CN(Cc2ccccc2)C[C@H]1NC(=O)c1cc(C2CC2)on1 (racemic) [compound 116, (±)-cis-N-([1-benzyl-4-methylpyrrolidin-3-yl)-5-cyclopropyl-1,2-oxazole-3-carboxamide]	4.2 µM
C[C@@H]1CN(Cc2ccccc2)C[C@H]1NC(=O)c1cc(C2CC2)on1 (racemic) [compound 117, (±)-trans-N-(1-benzyl-4-methylpyrrolidin-3-yl)-5-cyclopropyl-1,2-oxazole-3-carboxamide]	> 50 µM
C[C@H]1CN(Cc2cccnc2)C[C@H]1NC(=O)c1cc(C2CC2)on1 (racemic) [compound 120, (±)-cis-5-cyclopropyl-N-[4-methyl-1-(pyridin-3-ylmethyl)pyrrolidin-3-yl]-1,2-oxazole-3-carboxamide]	10.6 µM
C[C@H]1CN(Cc2ccccn2)C[C@H]1NC(=O)c1cc(C2CC2)on1 (racemic) [compound 121, (±)-cis-5-cyclopropyl-N-[4-methyl-1-(pyridin-2-ylmethyl)pyrrolidin-3-yl]-1,2-oxazole-3-carboxamide]	15.7 µM
CO[C@H]1CN(C)C[C@@H]1NC(=O)c1cc(C2CC2)on1 (racemic) [compound 122, (±)-trans-5-cyclopropyl-N-(4-methoxy-1-methylpyrrolidin-3-yl)-1,2-oxazole-3-carboxamide]	> 50 µM
CO[C@H]1CN(C)C[C@H]1NC(=O)c1cc(C2CC2)on1 (racemic) [compound 123, (±)-cis-5-cyclopropyl-N-(4-methoxy-1-methylpyrrolidin-3-yl)-1,2-oxazole-3-carboxamide]	49.8 µM
C[C@@H]1CN(Cc2cccnc2)C[C@H]1NC(=O)c1cc(C2CC2)on1 (racemic) [compound 124, (±)-trans-5-cyclopropyl-N-[4-methyl-1-(pyridin-3-ylmethyl)pyrrolidin-3-yl]-1,2-oxazole-3-carboxamide]	> 50 µM
C[C@@H]1CN(Cc2ccccn2)C[C@H]1NC(=O)c1cc(C2CC2)on1 (racemic) [compound 125, (±)-trans-5-cyclopropyl-N-[4-methyl-1-(pyridin-2-ylmethyl)pyrrolidin-3-yl]-1,2-oxazole-3-carboxamide]	> 50 µM

Next, values leading:

IC50	SMILES
> 50 µM	C[C@@H]1CN(CC2CC2)C[C@H]1NC(=O)c1cc(C2CC2)on1 (racemic) [compound 126, (±)-trans-5-cyclopropyl-N-[1-(cyclopropyl-methyl)-4-methyl-pyrrolidin-3-yl]-1,2-oxazole-3-carboxamide]
> 50 µM	C[C@@H]1CN(CC2CCCOC2)C[C@H]1NC(=O)c1cc(C2CC2)on1 (mixture of isomers) [compound 127, (±)-trans-5-cyclopropyl-N-[4-methyl-1-(oxan-3-ylmethyl)pyrrolidin-3-yl]-1,2-oxazole-3-carboxamide]

Same assay, conditions: Table 1; average of n = 1 to n = 50; read-out: SMYD2 Biochem IC50

IC50	SMILES
9.4 µM	CCc1cc(C(=O)N[C@@H]2CN(C3CC3)C[C@@H]2C)no1 (racemic) [compound 112, (±)-cis-N-(1-cyclopropyl-4-methylpyrrolidin-3-yl)-5-ethyl-isoxazole-3-carboxamide]

Same assay, conditions: Table 2; average of n = 1 to n = 50; read-out: SMYD2 Biochem IC50

SMILES	IC50
C[C@@H]1CN(CCS(C)(=O)=O)C[C@H]1NC(=O)c1cc(C2CC2)on1 (racemic) [compound 100, (±)-trans-5-cyclopropyl-N-(4-methyl-1-(2-(methyl-sulfonyl)ethyl)pyrrolidin-3-yl)isoxazole-3-carboxamide]	> 50 µM
C[C@@H]1CN(CCN)C[C@H]1NC(=O)c1cc(C2CC2)on1 (racemic) [compound 101, (±)-trans-N-(1-(2-aminoethyl)-4-methylpyrrolidin-3-yl)-5-cyclopropylisoxazole-3-carboxamide]	> 50 µM
C[C@H]1CN(Cc2cccnc2)C[C@H]1NC(=O)c1cc(C2CC2)on1 (racemic) [compound 107, (±)-cis-5-cyclopropyl-N-(4-methyl-1-(pyridin-3-ylmethyl)pyrrolidin-3-yl)isoxazole-3-carboxamide]	17.7 µM
C[C@H]1CN(Cc2ccncc2)C[C@H]1NC(=O)c1cc(C2CC2)on1 (racemic) [compound 108, (±)-cis-5-cyclopropyl-N-(4-methyl-1-(pyridin-4-ylmethyl)pyrrolidin-3-yl)isoxazole-3-carboxamide]	22.6 µM
C[C@H]1CN(Cc2ccccn2)C[C@H]1NC(=O)c1cc(C2CC2)on1 (racemic) [compound 109, (±)-cis-5-cyclopropyl-N-(4-methyl-1-(pyridin-2-ylmethyl)pyrrolidin-3-yl)isoxazole-3-carboxamide]	31.8 µM

Second part, the molecule after the results:

IC50	SMILES
> 50 µM	C[C@H]1CN(C(=O)CC2CCNCC2)C[C@@H]1NC(=O)c1cc(C2CC2)on1 (racemic) [compound 95, (±)-trans-5-cyclopropyl-N-(4-methyl-1-(2-(piperidin-4-yl)acetyl)pyrrolidin-3-yl)isoxazole-3-carboxamide]
> 50 µM	C[C@@H]1CN(C2CCCCC2)C[C@H]1NC(=O)c1cc(C2CC2)on1 (racemic) [compound 96, (±)-trans-N-(1-cyclohexyl-4-methylpyrrolidin-3-yl)-5-cyclopropylisoxazole-3-carboxamide]
> 50 µM	C[C@@H]1CN(C2CCOCC2)C[C@H]1NC(=O)c1cc(C2CC2)on1 (racemic) [compound 97, (±)-trans-5-cyclopropyl-N-(4-methyl-1-(tetrahydro-2H-pyran-4-yl)pyrrolidin-3-yl)isoxazole-3-carboxamide]
48.7 µM	C[C@@H]1CN(C2CCCC2)C[C@H]1NC(=O)c1cc(C2CC2)on1 (racemic) [compound 99, (±)-trans-N-(1-cyclopentyl-4-methylpyrrolidin-3-yl)-5-cyclopropylisoxazole-3-carboxamide]
> 50 µM	C[C@@H]1CN(C2CCN(C(=O)OC(C)(C)C)CC2)C[C@H]1NC(=O)c1cc(C2CC2)on1 (racemic) [compound 103, (±)-trans-tert-butyl 4-((3S,4R)-3-(5-cyclopropylisoxazole-3-carboxamido)-4-methylpyrrolidin-1-yl)piperidine-1-carboxylate]
> 50 µM	C[C@@H]1CN(C2CCNCC2)C[C@H]1NC(=O)c1cc(C2CC2)on1 (racemic) [compound 104, (±)-trans-5-cyclopropyl-N-((3S,4R)-4-methyl-1-(piperidin-4-yl)pyrrolidin-3-yl)isoxazole-3-carboxamide]
> 50 µM	C[C@@H]1CN(C2CCN(C)CC2)C[C@H]1NC(=O)c1cc(C2CC2)on1 (racemic) [compound 105, (±)-trans-5-cyclopropyl-N-((3S,4R)-4-methyl-1-(1-methylpiperidin-4-yl)pyrrolidin-3-yl)isoxazole-3-carboxamide]
> 50 µM	CC(=O)N1CCC(N2C[C@@H](C)[C@H](NC(=O)c3cc(C4CC4)on3)C2)CC1 (racemic) [compound 106, (±)-trans-N-(1-(1-acetylpiperidin-4-yl)-4-methylpyrrolidin-3-yl)-5-cyclopropylisoxazole-3-carboxamide]
3 µM	CCN1C[C@H](C)[C@H](NC(=O)c2cc(C3CC3)on2)C1 (racemic) [compound 110, (±)-cis-5-cyclopropyl-N-(1-ethyl-4-methylpyrrolidin-3-yl)isoxazole-3-carboxamide]
> 50 µM	CC(=O)N1C[C@H](C)[C@H](NC(=O)c2cc(C3CC3)on2)C1 (racemic) [compound 111, (±)-cis-N-(1-acetyl-4-methylpyrrolidin-3-yl)-5-cyclopropylisoxazole-3-carboxamide]
